From article doi:10.1101/2023.07.11.548539v1, “A side-by-side comparison of peptide-delivered antisense antibiotics employing different nucleotide mimics” (bioRxiv, 2023)
Oligonucleotides are written 5' to 3', each unit as a sugar letter and its base; * is a phosphorothioate linkage, no mark a phosphodiester; rarer units and linkages stand in square brackets, end groups in braces. Plain capitals give the bases only. d = 2'-deoxy (DNA)

Key:
[1] = tested on: AcpP::3xFLAG fusion protein; experiment: Western blot of intracellular AcpP protein levels; type: cell-based, Salmonella SL1344 AcpP::3xFLAG; design: key to AcpP protein reduction: -: Effect strength is represented by additional (+) signs.; Effect strength is represented by additional (+) signs.; ++: Effect strength is represented by additional (+) signs.; +++: Effect strength is represented by additional (+) signs; conditions: for AcpP protein reduction: summary grade, KFF-ASO treatment (Figure 9); for AcpP protein level (in words): 5 µM KFF-ASO conjugate, 30, 60, 120, 240 min for PNA and PMO, 120 min for all other ASOs
Experimental: Salmonella wild type (WT) and SL1344 AcpP::3xFLAG (chromosmal fusion of full length acpP to 3XFLAG-tag as described earlier([47]); internal strain number JVS-12398) were grown overnight in non-cation adjusted MHB. Bacterial cultures were diluted 1:100, grown to OD600 0.5 and subsequently diluted to approximately 10^6 cfu/ml in MHB. Then, 1.9 ml of each diluted bacterial solution was transferred into 5 ml low-binding tubes, pre-incubated at 37 °C for 10 min and treated with 100 µl of ASOs to adjust a final concentration of 5 µM. Water was added as negative control. The treatment with PNA and PMO was performed with aeration at 37 °C and 220 rpm shaking for 30, 60, 120 and 240 minutes while for all other ASOs, they were treated for 120 min only. Subsequently, the cells were collected by centrifugation at 4 °C and 16,000 ×g for 5 min, resuspended in 1× Protein Loading Buffer (62.6 mM Tris–HCl pH 6.8, 2 % SDS, 0.1 mg/ml bromophenol blue, 15.4 mg/ml DTT, 10 % glycerol) and denatured at 95 °C for 10 min.
For detection of AcpP::3xFLAG protein levels, samples were separated on an 12% SDS-PAA gel and transferred onto a Nitrocellulose membrane via semi dry western blotting. The membrane was probed with an α-FLAG antibody (Sigma; 1:1,000 in 1x TBS-T containing 3% BSA) at 4 °C overnight. After washing in 1x TBS-T, the membrane was incubated with a secondary HRP-conjugated anti-mouse antibody (Thermo Scientific; 1:5,000 in 1x TBS-T containing 1% BSA) at RT for 1 hour. Excessive antibody was removed by repeated wash steps in 1x TBS-T and the membrane was developed by Amersham™ ECL Select™ Western Blotting Detection Reagent Kit (Cytiva).

Salmonella = Salmonella growth assay; type: cell-based, Salmonella enterica serovar Typhimurium strain SL1344; design: key to Antibacterial activity: -: Effect strength is represented by additional (+) signs.; Effect strength is represented by additional (+) signs.; ++: Effect strength is represented by additional (+) signs.; +++: Effect strength is represented by additional (+) signs; conditions: for Effect on Salmonella growth (in words): KFF-ASO conjugates or unconjugated peptide, 24 h growth kinetics, OD600, MHB, 37 °C, up to 10 µM; for Antibacterial activity: summary grade, ASO conjugated to the carrier peptide
Experimental: An overnight bacterial cell culture was diluted 1:100 in fresh MHB and grown to OD600 0.5. The obtained culture was diluted to approximately 10^5 cfu/ml in non-cation-adjusted MHB. Subsequently, 190 µl bacterial solution was dispensed into a 96-well plate (Thermo Fisher Scientific) along with 10 µl of a 200 µM solution of the ASOs. Growth was monitored by measuring the OD at 600 nm every 20 min in a Synergy H1 plate reader (Biotek) with continuous double-orbital shaking (237 cpm) at 37 °C for 24 h.

[2] = tested on: acpP::gfp reporter transcript; experiment: In vitro translation (PURExpress) and anti-GFP western blot; type: biochemical, Salmonella enterica; design: key to Inhibition of translation in vitro: -: Effect strength is represented by additional (+) signs.; Effect strength is represented by additional (+) signs.; ++: Effect strength is represented by additional (+) signs.; +++: Effect strength is represented by additional (+) signs; conditions: unconjugated ASO; for GFP Expression (%): RNA 100 nM, 2 h 37 °C, relative to water control; for Inhibition of translation in vitro: summary grade; for Inhibition of in vitro translation of acpP::gfp (in words): western blot of AcpP-GFP fusion protein
Description: For the generation of target RNA::gfp fusion constructs, we used a previously established protocol ([31]) and the oligonucleotides JVO-19760/JVO-19761 (Supplementary Table 1) to amplify the genomic region spanning nucleotides –40 to + 51 relative to the translational start codon of acpP. The sense oligonucleotide was fused to a T7 promoter sequence for subsequent transcription of the final fusion construct in vitro. The antisense oligonucleotide contained a 30 nt overlapping region with gfp for subsequent fusion PCR with full length gfp (pXG-10; JVO-19762/JVO-19763) (Supplementary Table 1). The PCR products were purified with NucleoSpin Gel and PCR Clean-up (Macherey-Nagel) according to the manufacturer’s instructions and DNA concentration was quantified with a NanoDrop spectrophotometer (A260 nm).
PCR products were used for T7 RNA polymerase-driven transcription in vitro using the MEGAscript T7 kit (Ambion/Thermo Scientific), according to the manufacturer’s instructions and analogous to our previous publication ([31]). The concentration of the RNA solution was quantified with Qubit (Fisher Scientific) and the expected product size and RNA integrity was verified on a 6% PAA, 7 M urea gel.
For in vitro translation of target RNA::gfp fusion constructs, the PURExpress® In Vitro Protein Synthesis Kit (New England Biolabs, E6800L) was used as described previously ([31]). Briefly, the final volume of each in vitro translation reaction was set to 10 µL. 1µL of different concentrations of ASOs ranging from 10 µM to 0.625 µM were added to 1 µL of in vitro transcribed heat-denatured RNA (1µM) to adjust the final RNA concentration to 100 nM. The mixtures were pre-incubated at 37 °C for 5 min. Then 4 µL of Solution A and 3 µL of Solution B were added to the pre-annealed mixtures. After 2 h at 37 °C, protein samples were denatured in 1x reducing protein loading buffer (62.6 mM Tris–HCl pH 6.8, 2 % SDS, 0.1 mg/mL bromphenol blue, 15.4 mg/mL DTT, 10 % glycerol) at 95 °C for 5 min.
To visualise in vitro translated proteins, samples were separated on SDS-PAA (12 % PAA) gels, with subsequent semi-dry western blot transfer on polyvinylidene fluoride (PVDF) membranes. Membranes were blocked with 10% skim milk (in 1x TBS-T) for 1 h and probed with anti-GFP antibody (1:1,000; Sigma-Aldrich) in 5 % skim milk (in 1x TBS-T) overnight at 4 °C. After washing in 1x TBS-T and incubation with an HRP-conjugated secondary antibody (1:5,000; ThermoScientific) in 1x TBS-T, the membrane was incubated with developing solution kit (Amersham™ ECL Select™ Western Blotting Detection Reagent) and protein levels were detected using an ImageQuant LAS 500 (GE Healthcare Life Sciences). Images were processed and band intensities quantified using ImageJ. Protein bands were normalized to the water control.

In the case of “DNA-PTO: 10mer phosphorothioate-modified DNA antisense oligomer, sequence CTCATACTCT, targeting acpP (antisense dC*dT*dC*dA*dT*dA*dC*dT*dC*dT)”, the AcpP protein reduction [1] was “-”, the “Effect on Salmonella growth (in words)” value (Salmonella) was “slight growth retardation was observed at 5 µM and 10 µM” and the Antibacterial activity (Salmonella) was “-”. For the same substance, the “GFP Expression (%)” value ([2]; acpP-RNA : ASO 1 : 0.625) was 110.7%, the “GFP Expression (%)” value ([2]; acpP-RNA : ASO 1 : 1.25) was 106.7% and the “GFP Expression (%)” value ([2]; acpP-RNA : ASO 1 : 2.5) was 104.6%. The “GFP Expression (%)” value ([2]; acpP-RNA : ASO 1 : 5) was 96.5%, the “GFP Expression (%)” value ([2]; acpP-RNA : ASO 1 : 10) was 96.3% and the “Inhibition of translation in vitro” value [2] was “-”.

In the case of “LNA: 10mer 2'-4'-locked RNA antisense oligomer, sequence CTCATACTCT, targeting acpP (all LNA, backbone and methylation of C not given here)”, the AcpP protein reduction [1] was “-”, the “Effect on Salmonella growth (in words)” value (Salmonella) was “slight growth retardation was observed at 5 µM and 10 µM” and the Antibacterial activity (Salmonella) was “-”. For the same substance, the “GFP Expression (%)” value ([2]; acpP-RNA : ASO 1 : 0.625) was 97.8%, the “GFP Expression (%)” value ([2]; acpP-RNA : ASO 1 : 1.25) was 38.1% and the “GFP Expression (%)” value ([2]; acpP-RNA : ASO 1 : 2.5) was 8.0%. The “GFP Expression (%)” value ([2]; acpP-RNA : ASO 1 : 5) was 6.5%, the “GFP Expression (%)” value ([2]; acpP-RNA : ASO 1 : 10) was 4.5% and the “Inhibition of in vitro translation of acpP::gfp (in words)” value (from here on “Inhibition … (in words)”) [2] was “substantially blocking in vitro translation of acpP::gfp at 1.25x molar excess”.

In the case of “PMO: 10mer phosphorodiamidate morpholino antisense oligomer, sequence CTCATACTCT, targeting acpP (all phosphorodiamidate morpholino (PMO))”, the “AcpP protein level (in words)” value [1] was “gradual depletion of AcpP, albeit less pronounced than PNA”, the AcpP protein reduction [1] was “+” and the Antibacterial activity (Salmonella) was “+”. The “GFP Expression (%)” value ([2]; acpP-RNA : ASO 1 : 0.625) was 117.0%, the “GFP Expression (%)” value ([2]; acpP-RNA : ASO 1 : 1.25) was 104.6% and the “GFP Expression (%)” value ([2]; acpP-RNA : ASO 1 : 2.5) was 92.7%. The “GFP Expression (%)” value ([2]; acpP-RNA : ASO 1 : 5) was 60.4% and the “GFP Expression (%)” value ([2]; acpP-RNA : ASO 1 : 10) was 28.3%.

“PNA: 10mer peptide nucleic acid antisense oligomer, sequence CTCATACTCT, targeting acpP (all peptide nucleic acid (PNA))” was tested, and the “AcpP protein level (in words)” value [1] was “depletion in AcpP levels can be observed from 60 min post treatment onwards”, the AcpP protein reduction [1] was “++” and the Antibacterial activity (Salmonella) was “++”. For the same substance, the “GFP Expression (%)” value ([2]; acpP-RNA : ASO 1 : 0.625) was 106.8%, the “GFP Expression (%)” value ([2]; acpP-RNA : ASO 1 : 1.25) was 85.9% and the “GFP Expression (%)” value ([2]; acpP-RNA : ASO 1 : 2.5) was 13.0%. The “GFP Expression (%)” value ([2]; acpP-RNA : ASO 1 : 5) was 5.7%, the “GFP Expression (%)” value ([2]; acpP-RNA : ASO 1 : 10) was 5.5% and the “Inhibition … (in words)” value [2] was “substantially blocking in vitro translation of acpP::gfp at 1.25x molar excess”.

For “RNA-F: 10mer 2'-fluorinated RNA antisense oligomer, sequence CTCATACTCT, targeting acpP (all 2'-fluoro, backbone and T or U not given here)”, the AcpP protein reduction [1] was “-”, the “Effect on Salmonella growth (in words)” value (Salmonella) was “slight growth retardation was observed at 5 µM and 10 µM” and the Antibacterial activity (Salmonella) was “-”. For the same substance, the “GFP Expression (%)” value ([2]; acpP-RNA : ASO 1 : 0.625) was 96.1%, the “GFP Expression (%)” value ([2]; acpP-RNA : ASO 1 : 1.25) was 97.5% and the “GFP Expression (%)” value ([2]; acpP-RNA : ASO 1 : 2.5) was 85.0%. The “GFP Expression (%)” value ([2]; acpP-RNA : ASO 1 : 5) was 69.5% and the “GFP Expression (%)” value ([2]; acpP-RNA : ASO 1 : 10) was 58.3%.

With “RNA-MOE: 10mer 2'-methoxyethylated RNA antisense oligomer, sequence CTCATACTCT, targeting acpP (all 2'-MOE, backbone and methylation of C not given here)” the AcpP protein reduction [1] was “-”, the “Effect on Salmonella growth (in words)” value (Salmonella) was “slight growth retardation was observed at 5 µM and 10 µM” and the Antibacterial activity (Salmonella) was “-”. For the same substance, the “GFP Expression (%)” value ([2]; acpP-RNA : ASO 1 : 0.625) was 88.5%, the “GFP Expression (%)” value ([2]; acpP-RNA : ASO 1 : 2.5) was 5.1% and the “GFP Expression (%)” value ([2]; acpP-RNA : ASO 1 : 5) was 3.3%. The “GFP Expression (%)” value ([2]; acpP-RNA : ASO 1 : 10) was 3.4% and the “Inhibition … (in words)” value [2] was “substantially blocking in vitro translation of acpP::gfp at 1.25x molar excess”.

In the case of “RNA-OMe: 10mer 2'-methylated RNA antisense oligomer, sequence CTCATACTCT, targeting acpP (all 2'-O-methyl, backbone and T or U not given here)”, the AcpP protein reduction [1] was “-”, the “Effect on Salmonella growth (in words)” value (Salmonella) was “no activity at all” and the Antibacterial activity (Salmonella) was “-”. For the same substance, the “GFP Expression (%)” value ([2]; acpP-RNA : ASO 1 : 0.625) was 91.2%, the “GFP Expression (%)” value ([2]; acpP-RNA : ASO 1 : 1.25) was 100.6% and the “GFP Expression (%)” value ([2]; acpP-RNA : ASO 1 : 2.5) was 90.2%. For the same substance, the “GFP Expression (%)” value ([2]; acpP-RNA : ASO 1 : 5) was 89.0%, the “GFP Expression (%)” value ([2]; acpP-RNA : ASO 1 : 10) was 83.7% and the “Inhibition of translation in vitro” value [2] was “+”.
